Measured values: paper PMC11220606, “Understanding β-strand mediated protein–protein interactions: tuning binding behaviour of intrinsically disordered sequences by backbone modification” (Chemical Science, 2024)

Assays:
[1] = target: T1, human SUMO-1_18–97 (SUMO) (Homo sapiens, UniProt P63165); experiment: Fluorescence anisotropy competition assay (FAM-SIM tracer displacement from SUMO); conditions: for inhibitory potency relative to the parent SIM peptide (in words): fluorescence anisotropy competition assay, backbone N-methyl scan
Protocol: Fluorescence competition anisotropy data. The parent SIM peptide and its N-methylated variants were each
peptide (50 nM) in Tris-buffered saline (20 mM Tris, pH 8.0, 150 mM NaCl and 0.03% Triton-X).
Tris, 150 mM NaCl, 0.01 % Triton-X, pH 7.4 using 50 nM FAM PEG-SIM tracer and 3 μM SUMO protein.
Inhibitory potencies for N-methylated SIM peptides to SUMO. IC50 values were determined through competition
FA experiments (20 mm Tris, 150 mM NaCl, 0.03% Triton X, pH 8.0).
Competition binding assays were performed in triplicate within 384-well plates (Greiner Bio-one). Competitor
nM, 3 μM, 50 nM final concentrations of competitor, SUMO and tracer respectively). Control wells lacked
tracer. The plates were kept in the dark for at least 30 min before fluorescence polarisation was measured.
Labtech), with excitation at 482 nm (bandwidth = 16 nM) and emission at 530 nm (bandwidth = 40 nm). For
(bandwidth = 20 nM) and emission at 535 nm (bandwidth = 25 nm).
Perependicular (P) and parallel (S) intensities of the control wells were averaged and deducted from each
= Ssample – Sav. control). The total sample intensities (I) and anisotropies (r) were then calculated as follows:
Fluorescence anisotropy values were plotted against competitor peptide concentrations and fit to a logistic
function of the form Y = A2 + (A1 – A2) / (1 + (x/x0)p) for determination of half-maximal inhibitory concentrations
Note: To ensure a set of self-consistent IC50 values for comparison, experiments were performed using a single
batch of protein given subtle batch dependent variations in active concentration of protein.

[2] = target: T1, human SUMO-1_18–97 (SUMO); experiment: Relaxation-based NMR binding kinetics (15N ZZ-exchange for tighter binders, CPMG relaxation dispersion for weaker binders); conditions: for koff / kon: pH 7.4
Source text: Non-overlapping exchange cross-peaks were evident for a subset of residues when the ^15N magnetizations of the bound and unbound states were mixed following t1 (^15N) evolution (ZZ-exchange spectroscopy). Global fitting of the intensities of auto and cross peaks as a function of mixing time to McConnel equations (Fig. 3c, S8–S11; ESI ^† for methods) gave apparent first-order association k^appon and first-order dissociation koff rates for binding, which were converted to kon and dissociation equilibrium constants (KD).
All NMR spectra acquired using 15N-labelled protein samples were acquired at 5 °C, in 20 mM sodium
phosphate pH 7.4, 150 mM NaCl, 0.02% NaN3, on 750 or 600 MHz Bruker NMR spectrometers.
Protein and peptide NMR spectra were processed with NMRPipe and analysed in CcpNmr analysis.
15N ZZ-exchange spectroscopy
15N ZZ-exchange experiments were performed in an interleaved manner as described previously4 using mixing
times between 10 and 500 ms. Data were fit to a simple 2-state model:
where state A represents unbound SUMO and state B represents SUMO bound to SIM. The time-evolution of
the longitudinal magnetisations during mixing are described by the corresponding McConnel equations:4
𝑧 = 𝑘𝑎𝑝𝑝𝑀𝑏𝑎 ‒ 𝑀𝑏𝑏(𝑘 + 𝑅𝑏)
𝑧 = 𝑘 𝑀𝑏𝑏 ‒ 𝑀𝑏𝑎(𝑘𝑎𝑝𝑝 + 𝑅𝑎)
where is the𝑀𝑎𝑎𝑧 z-magnetization of unbound SUMO, is the𝑀𝑏𝑏𝑧 z-magnetization of bound SUMO, and , 𝑀𝑎𝑏𝑧
𝑧 are the z-magnetizations of the corresponding exchange cross-peaks. are11 the longitudinal relaxation
rates for states A and B, and are𝑜𝑛𝑜𝑓𝑓 the pseudo-first order association and dissociation rates,
respectively. Simple analytical solutions to the above equations are available4 and were used to fit the ZZ-
exchange data. Fitting parameters included , residue𝑜𝑛𝑜𝑓𝑓 specific rates,11 and scaling factors
𝐼𝑎𝑎, 𝐼𝑏𝑏 that incorporate any differences in the relaxation rates of the bound and unbound species. Scaling
factors for the exchange cross-peaks were 𝐼𝑎𝑏, 𝐼𝑏𝑎 not included as these were absent at the start of the mixing
period in all cases. Uncertainties in the fitted parameters were calculated using a Monte-Carlo approach based
on the noise of the experiment. Fitting was performed using in-house scripts written in Python employing the
LmFit module available at https://lmfit.github.io/lmfit-py/.

[3] = target: T1, human SUMO-1_18–97 (SUMO); experiment: Temperature dependence of NMR-derived exchange parameters (Van't Hoff and Eyring analysis); assay type: binding; set-up: human SUMO-1_18–97 (SUMO); His tag with TEV site (N, cleaved yes); made in house; conditions: 25 °C; for TΔS, Association (activation, kon) / TΔS, Dissociation (activation, koff) / ΔG, Association (activation, kon) / ΔG, Dissociation (activation, koff) / ΔH, Association (activation, kon) / ΔH, Dissociation (activation, koff): Eyring fit, ± SD of fitted parameter (Monte-Carlo), SD
Source text: Eyring plots were obtained for the temperature-dependence of the kon and koff rates (Fig. 5d and e), from which the association/dissociation activation enthalpies (ΔH^‡ass/ΔH^‡diss), activation/dissociation entropies (TΔS^‡ass/TΔS^‡diss), and thus activation/dissociation free energies (ΔG^‡ass/ΔG^‡diss), could be determined.

[4] = target: T1, human SUMO-1_18–97 (SUMO); experiment: as above; assay type: binding; set-up: human SUMO-1_18–97 (SUMO); His tag with TEV site (N, cleaved yes); made in house; conditions: 25 °C; for TΔS, Binding (KD) / ΔH, Binding (KD): Van't Hoff fit, ± SD of fitted parameter (Monte-Carlo), SD

T1 sequence (P63165 18-97): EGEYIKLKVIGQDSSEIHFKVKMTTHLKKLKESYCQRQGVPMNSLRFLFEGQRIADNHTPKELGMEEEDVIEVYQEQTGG

Row | Structure (SMILES) | IC50 [1] [µM] | Kd [2] [µM] | koff [2] [s⁻¹] | kon [2] [M⁻¹ s⁻¹] | other results
1 | CC[C@H](C)[C@H](NC(=O)[C@H](CCC(=O)O)NC(=O)[C@H](CC(N)=O)N(C)C(=O)[C@H](CC(=O)O)NC(C)=O)C(=O)N[C@@H](CCC(=O)O)C(=O)N[C@H](C(=O)N[C@H](C(=O)N[C@H](C(=O)N[C@H](C(=O)N[C@@H](Cc1c[nH]c2ccccc12)C(=O)N[C@@H](CCC(=O)O)C(=O)N[C@@H](CCCCN)C(=O)N[C@@H](CCCCN)C(N)=O)C(C)C)[C@@H](C)CC)[C@@H](C)CC)C(C)C [Me-Asn2706] | 9.4 ± 0.5 | – | – | – | –
2 | CC[C@H](C)[C@H](NC(=O)[C@H](CCC(=O)O)NC(=O)[C@H](CC(N)=O)NC(=O)[C@H](CC(=O)O)N(C)C(C)=O)C(=O)N[C@@H](CCC(=O)O)C(=O)N[C@H](C(=O)N[C@H](C(=O)N[C@H](C(=O)N[C@H](C(=O)N[C@@H](Cc1c[nH]c2ccccc12)C(=O)N[C@@H](CCC(=O)O)C(=O)N[C@@H](CCCCN)C(=O)N[C@@H](CCCCN)C(N)=O)C(C)C)[C@@H](C)CC)[C@@H](C)CC)C(C)C [Me-Asp2705] | 12.6 ± 0.5 | – | – | – | –
3 | CC[C@H](C)[C@H](NC(=O)[C@@H](NC(=O)[C@H](CCC(=O)O)NC(=O)[C@@H](NC(=O)[C@H](CCC(=O)O)N(C)C(=O)[C@H](CC(N)=O)NC(=O)[C@H](CC(=O)O)NC(C)=O)[C@@H](C)CC)C(C)C)C(=O)N[C@H](C(=O)N[C@H](C(=O)N[C@@H](Cc1c[nH]c2ccccc12)C(=O)N[C@@H](CCC(=O)O)C(=O)N[C@@H](CCCCN)C(=O)N[C@@H](CCCCN)C(N)=O)C(C)C)[C@@H](C)CC [Me-Glu2707] | 12.4 ± 0.8 | – | – | – | –
4 | CC[C@H](C)[C@H](NC(=O)[C@@H](NC(=O)[C@H](CCC(=O)O)N(C)C(=O)[C@@H](NC(=O)[C@H](CCC(=O)O)NC(=O)[C@H](CC(N)=O)NC(=O)[C@H](CC(=O)O)NC(C)=O)[C@@H](C)CC)C(C)C)C(=O)N[C@H](C(=O)N[C@H](C(=O)N[C@@H](Cc1c[nH]c2ccccc12)C(=O)N[C@@H](CCC(=O)O)C(=O)N[C@@H](CCCCN)C(=O)N[C@@H](CCCCN)C(N)=O)C(C)C)[C@@H](C)CC [Me-Glu2709] | 31.4 ± 3 | – | – | – | –
5 | CC[C@H](C)[C@H](NC(=O)[C@H](CCC(=O)O)NC(=O)[C@H](CC(N)=O)NC(=O)[C@H](CC(=O)O)NC(C)=O)C(=O)N[C@@H](CCC(=O)O)C(=O)N[C@H](C(=O)N[C@H](C(=O)N[C@H](C(=O)N[C@H](C(=O)N[C@@H](Cc1c[nH]c2ccccc12)C(=O)N(C)[C@@H](CCC(=O)O)C(=O)N[C@@H](CCCCN)C(=O)N[C@@H](CCCCN)C(N)=O)C(C)C)[C@@H](C)CC)[C@@H](C)CC)C(C)C [Me-Glu2715] | 27.4 ± 1.9 | – | – | – | –
6 | CC[C@H](C)[C@H](NC(=O)[C@@H](NC(=O)[C@H](CCC(=O)O)NC(=O)[C@H]([C@@H](C)CC)N(C)C(=O)[C@H](CCC(=O)O)NC(=O)[C@H](CC(N)=O)NC(=O)[C@H](CC(=O)O)NC(C)=O)C(C)C)C(=O)N[C@H](C(=O)N[C@H](C(=O)N[C@@H](Cc1c[nH]c2ccccc12)C(=O)N[C@@H](CCC(=O)O)C(=O)N[C@@H](CCCCN)C(=O)N[C@@H](CCCCN)C(N)=O)C(C)C)[C@@H](C)CC [Me-Ile2708] | 5.4 ± 0.3 | 14 ± 0.4 | 4.58 ± 0.04 | 327000 ± 9000 | –
7 | CC[C@H](C)[C@H](NC(=O)[C@H](CCC(=O)O)NC(=O)[C@H](CC(N)=O)NC(=O)[C@H](CC(=O)O)NC(C)=O)C(=O)N[C@@H](CCC(=O)O)C(=O)N[C@H](C(=O)N(C)[C@H](C(=O)N[C@H](C(=O)N[C@H](C(=O)N[C@@H](Cc1c[nH]c2ccccc12)C(=O)N[C@@H](CCC(=O)O)C(=O)N[C@@H](CCCCN)C(=O)N[C@@H](CCCCN)C(N)=O)C(C)C)[C@@H](C)CC)[C@@H](C)CC)C(C)C [Me-Ile2711, Ac-DNEIEV(NMe)IIVWEKK-NH2] | > 300 | – | – | – | inhibitory potency relative to the parent SIM peptide (in words) [1]: significantly diminished inhibitory potency
8 | CC[C@H](C)[C@H](NC(=O)[C@H](CCC(=O)O)NC(=O)[C@H](CC(N)=O)NC(=O)[C@H](CC(=O)O)NC(C)=O)C(=O)N[C@@H](CCC(=O)O)C(=O)N[C@H](C(=O)N[C@H](C(=O)N(C)[C@H](C(=O)N[C@H](C(=O)N[C@@H](Cc1c[nH]c2ccccc12)C(=O)N[C@@H](CCC(=O)O)C(=O)N[C@@H](CCCCN)C(=O)N[C@@H](CCCCN)C(N)=O)C(C)C)[C@@H](C)CC)[C@@H](C)CC)C(C)C [Me-Ile2712, Ac-DNEIEVI(NMe)IVWEKK-NH2] | 7.9 ± 1 | 14.5 ± 0.9 | 5.9 ± 0.08 | 410000 ± 28000 | TΔS‡ass more favourable than parent by [3]: ≈ 11 kJ mol^−1; ΔH‡ass more unfavourable than parent by [3]: ≈ 8 kJ mol^−1; TΔS, Association (activation, kon) [3]: 145.5 ± 2.1 kJ/mol; TΔS, Dissociation (activation, koff) [3]: -14.7 ± 0.2 kJ/mol; ΔG, Association (activation, kon) [3]: 27.5 ± 2.2 kJ/mol; ΔG, Dissociation (activation, koff) [3]: 64.8 ± 0.4 kJ/mol; ΔH, Association (activation, kon) [3]: 172.5 ± 2.1 kJ/mol; ΔH, Dissociation (activation, koff) [3]: 50.2 ± 0.3 kJ/mol; decrease in ΔGbind relative to parent [4]: 3 kJ/mol; increase in enthalpy (ΔHbind) in comparison to the parent SIM peptide [4]: ~12 kJ/mol; increase in entropy of binding (TΔSbind) in comparison to the parent SIM peptide [4]: ~15 kJ/mol; TΔS, Binding (KD) [4]: 161.8 ± 2.0 kJ/mol; ΔH, Binding (KD) [4]: 125.2 ± 0.2 kJ/mol; ΔΔG vs. parent (increase in affinity) ([2]; from KD values of 15N ZZ-exchange data at 5 °C): ~2 kJ/mol

Further lines, with some results ahead:

Row | IC50 [1] [µM] | Kd [2] [µM] | koff [2] [s⁻¹] | kon [2] [M⁻¹ s⁻¹] | Structure (SMILES) | other results
9 | > 100 | 510 ± 40 | 553 ± 17 | 1.09e+06 ± 70000 | CC[C@H](C)[C@H](NC(=O)[C@H](CCC(=O)O)NC(=O)[C@H](CC(N)=O)NC(=O)[C@H](CC(=O)O)NC(C)=O)C(=O)N[C@@H](CCC(=O)O)C(=O)N[C@H](C(=O)N[C@H](C(=O)N[C@H](C(=O)N[C@H](C(=O)N[C@@H](Cc1c[nH]c2ccccc12)C(=O)N[C@@H](CCC(=O)O)C(=O)N(C)[C@@H](CCCCN)C(=O)N[C@@H](CCCCN)C(N)=O)C(C)C)[C@@H](C)CC)[C@@H](C)CC)C(C)C [Me-Lys2716] | TΔS, Association (activation, kon) [3]: 13.0 ± 0.2 kJ/mol; TΔS, Dissociation (activation, koff) [3]: -38.5 ± 0.1 kJ/mol; ΔG, Association (activation, kon) [3]: 35.4 ± 0.3 kJ/mol; ΔG, Dissociation (activation, koff) [3]: 56.5 ± 0.1 kJ/mol; ΔH, Association (activation, kon) [3]: 48.5 ± 0.2 kJ/mol; ΔH, Dissociation (activation, koff) [3]: 17.9 ± 0.1 kJ/mol; TΔS, Binding (KD) [4]: 52.5 ± 0.2 kJ/mol; ΔH, Binding (KD) [4]: 31.4 ± 0.2 kJ/mol
10 | 10 ± 0.4 | 13.6 ± 0.5 | 8.95 ± 0.12 | 657000 ± 27000 | CC[C@H](C)[C@H](NC(=O)[C@H](CCC(=O)O)NC(=O)[C@H](CC(N)=O)NC(=O)[C@H](CC(=O)O)NC(C)=O)C(=O)N[C@@H](CCC(=O)O)C(=O)N[C@H](C(=O)N[C@H](C(=O)N[C@H](C(=O)N[C@H](C(=O)N[C@@H](Cc1c[nH]c2ccccc12)C(=O)N[C@@H](CCC(=O)O)C(=O)N[C@@H](CCCCN)C(=O)N(C)[C@@H](CCCCN)C(N)=O)C(C)C)[C@@H](C)CC)[C@@H](C)CC)C(C)C [Me-Lys2717] | –
11 | > 100 | – | – | – | CC[C@H](C)[C@H](NC(=O)[C@H](CCC(=O)O)NC(=O)[C@H](CC(N)=O)NC(=O)[C@H](CC(=O)O)NC(C)=O)C(=O)N[C@@H](CCC(=O)O)C(=O)N[C@H](C(=O)N[C@H](C(=O)N[C@H](C(=O)N[C@H](C(=O)N(C)[C@@H](Cc1c[nH]c2ccccc12)C(=O)N[C@@H](CCC(=O)O)C(=O)N[C@@H](CCCCN)C(=O)N[C@@H](CCCCN)C(N)=O)C(C)C)[C@@H](C)CC)[C@@H](C)CC)C(C)C [Me-Trp2714] | inhibitory potency relative to the parent SIM peptide (in words) [1]: significantly diminished inhibitory potency
12 | > 100 | 388 ± 7 | 208 ± 1 | 536000 ± 10000 | CC[C@H](C)[C@H](NC(=O)[C@H](CCC(=O)O)NC(=O)[C@H](CC(N)=O)NC(=O)[C@H](CC(=O)O)NC(C)=O)C(=O)N[C@@H](CCC(=O)O)C(=O)N(C)[C@H](C(=O)N[C@H](C(=O)N[C@H](C(=O)N[C@H](C(=O)N[C@@H](Cc1c[nH]c2ccccc12)C(=O)N[C@@H](CCC(=O)O)C(=O)N[C@@H](CCCCN)C(=O)N[C@@H](CCCCN)C(N)=O)C(C)C)[C@@H](C)CC)[C@@H](C)CC)C(C)C [Me-Val2710] | –
13 | > 100 | – | – | – | CC[C@H](C)[C@H](NC(=O)[C@H](CCC(=O)O)NC(=O)[C@H](CC(N)=O)NC(=O)[C@H](CC(=O)O)NC(C)=O)C(=O)N[C@@H](CCC(=O)O)C(=O)N[C@H](C(=O)N[C@H](C(=O)N[C@H](C(=O)N(C)[C@H](C(=O)N[C@@H](Cc1c[nH]c2ccccc12)C(=O)N[C@@H](CCC(=O)O)C(=O)N[C@@H](CCCCN)C(=O)N[C@@H](CCCCN)C(N)=O)C(C)C)[C@@H](C)CC)[C@@H](C)CC)C(C)C [Me-Val2713] | inhibitory potency relative to the parent SIM peptide (in words) [1]: significantly diminished inhibitory potency
